# Laboratory results: article PMC546160 (Nucleic Acids Research, 2005)
# Experiments:
# [1] = molecular target: T1, HhaI methyltransferase (M.HhaI) (Haemophilus parahaemolyticus, UniProt P05102); test: biochemical
# T1 sequence (P05102 1-327): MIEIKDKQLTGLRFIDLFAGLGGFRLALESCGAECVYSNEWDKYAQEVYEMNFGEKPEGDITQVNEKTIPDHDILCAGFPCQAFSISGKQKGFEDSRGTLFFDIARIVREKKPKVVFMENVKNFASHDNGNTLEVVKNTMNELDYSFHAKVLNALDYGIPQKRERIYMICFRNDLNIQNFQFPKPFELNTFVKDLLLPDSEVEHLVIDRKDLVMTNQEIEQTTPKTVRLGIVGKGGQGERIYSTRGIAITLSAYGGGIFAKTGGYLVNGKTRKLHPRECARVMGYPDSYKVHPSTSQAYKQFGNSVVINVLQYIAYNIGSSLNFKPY
# [2] = molecular target: HhaI methyltransferase (M.HhaI) (Haemophilus parahaemolyticus, UniProt P05102, W41I); test: biochemical
compound,measurement,setting,value
C[S+](CC[C@H](N)C(=O)O)C[C@H]1O[C@@H](n2cnc3c(N)ncnc32)[C@H](O)[C@@H]1O (some centres unmarked) [AdoMet],Kd,[1],4.4 µM
same,Kd,[2],14 µM
